Measurements from article PMC6006285, “Specific stereochemistry of OP-1074 disrupts estrogen receptor alpha helix 12 and confers pure antiestrogenic activity” (Nature Communications, 2018).
“And” between values parts separate entries of the source, which are not always exact repeats. Equal entries are not always repeated.

Assays:
wild type ERα = molecular target: T1, wild type ERα (Homo sapiens, UniProt P03372); test: ERE3X-TATA-Luc reporter in HeLa cells transfected with ERα; assay type: cell-based; settings: 1 nM E2, 22 h, read-out: IC50 inhibition of E2-stimulated ERα transcriptional activity
T1 construct: expressed in transfected cells; host or cells: HeLa
T1 sequence (P03372 1-595): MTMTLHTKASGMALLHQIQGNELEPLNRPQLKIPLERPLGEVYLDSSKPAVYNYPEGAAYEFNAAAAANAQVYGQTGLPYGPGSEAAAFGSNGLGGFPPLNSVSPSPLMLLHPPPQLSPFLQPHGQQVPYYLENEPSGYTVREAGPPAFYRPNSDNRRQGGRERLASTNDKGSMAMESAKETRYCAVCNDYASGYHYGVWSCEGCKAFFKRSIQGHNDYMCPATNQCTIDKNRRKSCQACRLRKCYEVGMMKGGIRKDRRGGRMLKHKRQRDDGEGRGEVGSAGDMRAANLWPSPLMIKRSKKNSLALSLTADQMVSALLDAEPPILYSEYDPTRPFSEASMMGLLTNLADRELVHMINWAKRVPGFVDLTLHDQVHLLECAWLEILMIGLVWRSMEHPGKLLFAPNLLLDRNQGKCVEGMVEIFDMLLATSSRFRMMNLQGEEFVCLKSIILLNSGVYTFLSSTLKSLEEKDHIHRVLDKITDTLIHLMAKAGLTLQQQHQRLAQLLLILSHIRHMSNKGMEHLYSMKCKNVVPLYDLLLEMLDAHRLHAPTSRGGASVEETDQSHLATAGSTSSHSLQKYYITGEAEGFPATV
From the text: Supplementary Figure 2: Specificity of OP-1074
Supplementary Figure 2. OP-1074 is specific for ERα and ERβ. A, OP-1074 inhibits E2-stimulated ERα and ERβ mediated transcription. HeLa cells were transfected with an estrogen responsive reporter gene, ERE3X-TATA-Luc, along with wild type ERα or ERβ, and treated […]
Shown is the mean luciferase activity
Luciferase activity (% Dex)
Luciferase activity (% MPA)
Luciferase activity (% R1881)
(1 picture or pasted object on this page, not shown here) […]
(§1) representative experiment. […]
(§2) receptor (AR, (B)), glucocorticoid receptor (GR, (C)), and the B-isoform of the progesterone receptor (PR-B, (D)). HeLa cells were transfected with the designated wild type receptor along with reporter gene PRE3X-TATA-Luc, which is promiscuously activated with known agonists specific for each receptor: R1881 for AR, dexamethasone (Dex) for GR, and medroxyprogesterone acetate (MPA) for PR-B. Each receptor was also dosed with one concentration of known antagonist for each receptor: 32 nM bicalutamide for AR, and 500 nM RU486 for GR and PR. Transfected cells were treated with the designated ligands for 22 hours and luciferase activity assayed. Shown are representative experiments, independently performed at least 3 times. Note that curves for agonists for each receptor were performed in separate experiments. […]

androgen receptor (AR) = molecular target: T2, androgen receptor (AR) (Homo sapiens, UniProt P10275); test: PRE3X-TATA-Luc reporter in HeLa cells transfected with AR; assay type: cell-based; settings: alone or + 32 nM R1881, 22 h
T2 construct: HeLa cells were transfected as above but also with plasmids for full length wild; expressed in transfected cells; host or cells: HeLa
T2 sequence (P10275 1-920): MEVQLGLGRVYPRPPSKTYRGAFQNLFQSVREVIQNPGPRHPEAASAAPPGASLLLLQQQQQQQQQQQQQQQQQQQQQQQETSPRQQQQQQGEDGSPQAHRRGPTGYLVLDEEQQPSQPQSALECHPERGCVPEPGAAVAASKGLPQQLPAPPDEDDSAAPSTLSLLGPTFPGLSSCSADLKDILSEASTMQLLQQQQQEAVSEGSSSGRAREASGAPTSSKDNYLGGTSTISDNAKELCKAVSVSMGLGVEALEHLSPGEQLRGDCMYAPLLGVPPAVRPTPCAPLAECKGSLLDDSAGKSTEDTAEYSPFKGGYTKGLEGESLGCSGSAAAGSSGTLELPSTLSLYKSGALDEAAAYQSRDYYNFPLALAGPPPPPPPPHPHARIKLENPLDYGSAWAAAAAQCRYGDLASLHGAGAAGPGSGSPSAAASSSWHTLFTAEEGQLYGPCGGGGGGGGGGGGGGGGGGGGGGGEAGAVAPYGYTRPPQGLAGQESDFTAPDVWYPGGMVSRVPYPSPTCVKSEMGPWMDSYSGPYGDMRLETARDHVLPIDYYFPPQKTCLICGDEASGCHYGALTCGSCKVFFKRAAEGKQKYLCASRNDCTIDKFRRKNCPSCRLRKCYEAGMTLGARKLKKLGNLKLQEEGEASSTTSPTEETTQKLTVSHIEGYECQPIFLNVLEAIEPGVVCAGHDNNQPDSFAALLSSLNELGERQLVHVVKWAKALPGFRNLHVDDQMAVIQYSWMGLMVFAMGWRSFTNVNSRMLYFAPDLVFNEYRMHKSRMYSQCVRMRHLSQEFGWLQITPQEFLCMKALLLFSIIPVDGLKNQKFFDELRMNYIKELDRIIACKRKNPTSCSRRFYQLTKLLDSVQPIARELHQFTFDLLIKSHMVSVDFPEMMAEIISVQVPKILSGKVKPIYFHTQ
Procedure: as §1
as §2, with “experiments. Shown are means with SEM, normalized to percent of 32 nM R1881 for AR, 32 nM Dex for GR, and 0.5 µM MPA for PR-B (except with MPA alone, which was normalized to” for “experiments.”
either ERα or ERβ, and 85 ng ERE-3x-Luc, containing 3 copies of estrogen-response element (ERE) cloned into pGL4.23 luciferase reporter gene containing a minimal TATA promoter […]
hours (1.25% total final charcoal dextran stripped FBS). Bright Glo luciferase reagent (Promega) […]

MCF7/HER2/neu tumors = tested on: MCF7/HER2/neu tumors
Procedure: MCF7/HER2/neu cells were grown in culture and implanted into 6–7 week athymic ovariectomized female nu/nu mice (Taconic Biosciences). To stimulate tumor growth, 0.18 mg estradiol 90 day release pellets (Innovative Research) were implanted along with cells. […] Tumor volume and bodyweight were measured twice weekly. At end of the study animals were euthanized, tumors resected and snap frozen in liquid nitrogen, and uteri were resected, weighed, and fixed in 10% formalin.

[1] = number of 10 tumors at end of study, OP-1074 100 mg/kg oral twice daily, fulvestrant 100 mg/kg subcutaneous daily

`CC1=C(c2ccc(O)cc2)[C@H](c2ccc(OCCN3CC[C@@H](C)C3)cc2)Oc2cc(O)ccc21` [OP-1074] was tested, and the IC50 (wild type ERα) was 1.6 nM and 1.7 nM, the “Agonist and antagonist activity on AR” value (androgen receptor (AR)) was “lacks agonist and antagonist activity” and the Tolerability (MCF7/HER2/neu tumors; nude mice, 100 mg/kg dosed twice a day by oral gavage) was “well-tolerated with no adverse effects on behavior or mouse bodyweight”. For the same compound, the “Tumors shrunk / growth inhibited by >50%” value (MCF7/HER2/neu tumors; [1]) was “all ten” and the “Tumors shrunk >80%” value (MCF7/HER2/neu tumors; [1]) was 9/10.
